Results reported in article PMC3923778 (PLoS Currents, 2014).
Entries after “also recorded” stand apart in the source; their conditions may differ.

Key:
[1] = tested on: cGMP levels in the striatum; assay: Microdialysis PD: cGMP in striatal extracellular dialysate; format: in vivo, mouse; conditions: male R6/2
Method: Microdialysis PK/PD studies were conducted at Brains Online, Inc. (San Francisco, CA, USA)
Male R6/2 (CBA/C57Bl/6 strain, CAG 120) mice aged 7-8 weeks (20 - 30 g; The Jackson Laboratory, USA) were used for the experiments. The animals were group housed in plastic cages (3-4 animals / cage) and had access to food and water ad libitum. Experiments were conducted in accordance with the declarations of Helsinki and were approved by the Institutional Animal Care and Use Committee of the University of California, San-Francisco.
Mice were anesthetized using isoflurane (2%, 800 mL/min O2). Bupivacain/epinephrine was used for local anesthesia. Carprophen was used peri-/post-operative as analgesia. The animals were placed in a stereotaxic frame (Kopf instruments, USA), and microdialysis probes were inserted into the striatum. Coordinates for the tips of the probes were for striatum: […] (AP) = +0.8 mm to bregma, lateral (L) = -1.7 mm to midline and ventral (V) = -4.0 mm to dura, the toothbar was set at 0.0 mm (Paxinos and Franklin, 2001). […] After surgery animals were kept individually in cages and provided food and water ad libitum. Animals were fasted the night before the experiment.
Experiments were performed one day after surgery. On the day of the experiment, the probes of the animals were connected with flexible PEEK tubing to a microperfusion pump (Syringe pump UV 8301501, Univentor, Malta). MQ probes were perfused with aCSF containing 0.2% albumin at a flow rate of 0.10 µL/min. As the carrier flow, ultrapurified H2O was used at a flow rate of 0.70 µL/min. I-shaped probes were perfused with aCSF at a flow rate of 1.5 µL/min. Microdialysis samples were collected for 30-minute periods by an automated fraction collector (CMA 142, Sweden) into mini-vials. Samples originating from I-shaped probes were collected into mini-vials already containing 15 µL of 0.02 M formic acid. 10 µL of 0.02 M formic acid was added in the samples originating from MQ probes. […] Following compound administration, microdialysate samples continued to be collected for 240 min at 30 minute intervals. All dialysis samples were stored at -80 °C.
Concentrations of cGMP were determined by HPLC with tandem mass spectrometry (MS/MS) detection. Standard samples were prepared in artificial dialysate matrix, consisting of 3 parts (v/v) aCSF mixed with 1 part 0.02M formic acid in ultrapurified H2O. Final concentrations of standard samples were 0.02, 0.05, 0.1, 0.2, 0.5, 1, 2, 5 and 10 nM. Quality control (QC) samples were prepared independently. Final concentrations were 0.3 (QClow), 0.75 (QCmid) and 7.5 (QChigh) nM. […]
Treatment effects were evaluated among different drug concentrations and also compared to baseline, using two-way ANOVA for repeated measurements followed by Student-Newman-Keuls post-hoc test. […]

[2] = tested on: PDE1; design: method as in PMID 9216839, PMID 17697115, PMID 8961086, PMID 7581878; conditions: ref [12], [23], [27], [28], read-out: reported IC50; cited from earlier work
[3] = tested on: PDE5; design: method as in PMID 9216839, PMID 17697115, PMID 8961086, PMID 7581878; conditions: [12] uses full length PDE5 derived from bovine lung, ref [12], [23], [27], [28], read-out: reported IC50; cited from earlier work

CN1C(=O)c2nc(Cc3ccc(C(F)(F)F)cc3)[nH]c2N2C1=N[C@H]1CCC[C@H]12 [SCH-51866, (+)-cis-5,6a,7,8,9,9a-hexahydro-2-[4-[trifluro-methyl]phenylmethyl]-5-methyl-cylopent[4,5]imidazo [2,1-b]purin-4(3H)one]
Elevation in cGMP in extracellular dialysate over baseline ([1]; 3 mg/kg po acute): not
Elevation in cGMP in extracellular dialysate over baseline ([1]; 10 mg/kg po acute): significantly elevated cGMP levels; also recorded: significant over baseline
Elevation in cGMP in extracellular dialysate over baseline ([1]; 30 mg/kg po acute): significantly elevated cGMP levels; also recorded: significant over baseline
accumulation of cGMP versus dose ([1]; acute po): increased dose-proportionally
IC50 [2]: 0.07 µM
IC50 [3]: 0.06 µM
